Test results: US11498928B2, “Macrocyclic spiroethers as Mcl-1 inhibitors” (ASCENTAGE PHARMA (SUZHOU) CO., LTD., priority 2019, dated 2022)
Where two headings read alike, the source gives them in different places.

Tests used:
[1] = amide bond, T3P, DCM, 2.0 h
[2] = Pharmacokinetic studies in mice (IV and PO); assay type: in vivo; conditions: for F: PO 10 mg/kg vs IV 2 mg/kg; for AUC(0-inf) / AUC(0-t) / clearance / half-life / Cmax / MRT last / Vd / Tmax / Vd/F: mouse, plasma; for MRT last: read-out: MRT0-last; for Vd: read-out: Vss; for Vd/F: read-out: Vz/F
Method: Administration: Mice in the IV group was dosed at 2 mg/kg (20% PEG 400+10% Cremophor EL+70% PBS 7.4) via tail vein injection (N=9). Mice in the PO group was dosed at 10 mg/kg (20% PEG 400+10% Cremophor EL+70% PBS 7.4) via oral gavage (N=9). All the mice were fasted overnight before dosing and had free access to food 4 hr post dosing.
Sampling: The animal was restrained manually at the designated time points (0.083, 0.25, 0.5, 1, 2, 4, 6, 8 and 24 hr), approximately 110 μL of blood sample was collected via retro-orbital puncture or cardiac puncture for terminal bleeding under the anesthesia with Isoflurane inhalation into K2EDTA tubes. The blood samples were maintained in wet ice first and centrifuged to obtain plasma (2000 g, 4° C., 5 min) within 15 minutes post sampling. All the plasma samples were stored at approximately −70° C. until analysis.

[3] = molecular target: T1, Mcl-1 protein (residues 171-323) (Homo sapiens, UniProt Q07820); assay: Inhibition of Mcl-1 by fluorescence polarization (FP) competitive binding assay with FAM-Bid tracer; conditions: 2 nM FAM-Bid, 20 nM Mcl-1, 30 min
T1 construct: Tag-free Mcl-1 protein (residues 171-323) was used in the FP assay
T1 sequence (Q07820 171-323): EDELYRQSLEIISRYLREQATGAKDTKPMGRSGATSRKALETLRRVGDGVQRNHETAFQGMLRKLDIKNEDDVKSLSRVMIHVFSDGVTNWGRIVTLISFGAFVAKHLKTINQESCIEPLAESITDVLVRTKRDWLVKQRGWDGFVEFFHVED
In short: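 Tag-free Mcl-1 (20 nM) with 2 nM FAM-Bid peptide in PBS, 0.01% BGG, 0.01% Triton X-100, 5% DMSO, 30 min at room temperature. FP read at Ex 485/Em 528 nm. IC50 from 10-point curves normalised to DMSO and no-protein controls.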

NCI-H929 cells = assay: Cell viability assay (NCI-H929 cells), CCK-8; assay type: cell-based; conditions: 5% FBS
In short: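 NCI-H929 cells from ATCC were seeded at 20000 cells/well in 95 μL of culture medium in 96-well plates and grown for 4 hrs. Compounds, serially diluted in DMSO and further diluted in medium, were added as 5 μL, and cells were incubated for 24 hrs at 37° C. with 5% CO2. Viability was measured with CCK-8.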

OPM-2 cells = assay: Cell viability assay (OPM-2 cells), CCK-8; assay type: cell-based; conditions: 5% FBS
In short: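 OPM-2 myeloma cells (20000/well) exposed to serially diluted compound for 24 h at 37 °C, 5% CO2, then incubated 4 h with CCK-8 and read at 450 nm. Readings normalized to vehicle; IC50 from nonlinear regression.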

[4] = IV 2 mg/kg, read-out: C0/Cmax (C0)
[5] = PO 10 mg/kg, read-out: C0/Cmax (Cmax)

SMILES | F [2] [%] | AUC(0-inf) ([2]; IV 2 mg/kg) [ng·h/mL] | AUC(0-t) ([2]; IV 2 mg/kg) [ng·h/mL] | clearance ([2]; IV 2 mg/kg) [mL/min/kg] | half-life ([2]; IV 2 mg/kg) [h] | Cmax [2, 4] [ng/mL] | MRT last ([2]; IV 2 mg/kg) [h] | Vd ([2]; IV 2 mg/kg) [L/kg] | AUC(0-inf) ([2]; PO 10 mg/kg) [ng·h/mL] | AUC(0-t) ([2]; PO 10 mg/kg) [ng·h/mL] | Tmax ([2]; PO 10 mg/kg) [h] | half-life ([2]; PO 10 mg/kg) [h] | Cmax [2, 5] [ng/mL] | MRT last ([2]; PO 10 mg/kg) [h] | Vd/F ([2]; PO 10 mg/kg) [L/kg] | IC50 [3] [nM] | IC50 (NCI-H929 cells; Homo sapiens, NCI-H929, 24 h) [nM] | IC50 (OPM-2 cells; Homo sapiens, OPM-2, 24 h) [nM] | also measured
CC(=O)O[C@H]1C2=C[C@@H](C2)[C@H](C)[C@@H](C)S(=O)(=O)NC(=O)c2ccc3c(c2)N(C[C@@H]2CC[C@H]21)C[C@@]1(CCCc2c1ccc(Cl)c2F)CO3 | – | – | – | – | – | – | – | – | – | – | – | – | – | – | – | – | – | – | ring closure, yield of all isomers ([1]; from CC(=O)O[C@@H](C1=C[C@H]([C@H](C)[C@@H](C)S(N)(=O)=O)C1)[C@@H]1CC[C@H]1CN1C[C@@]2(CCCc3c2ccc(Cl)c3F)COc2ccc(C(=O)O)cc21, TEA, 14.5 mM): 100%
CC(=O)OC1C2=C[C@@H](C2)[C@H](C)[C@@H](C)S(=O)(=O)NC(=O)c2ccc3c(n2)N(C[C@@H]2CC[C@@H]12)C[C@@]1(CCCc2c1ccc(Cl)c2F)CO3 (stereo partly shown) | – | – | – | – | – | – | – | – | – | – | – | – | – | – | – | – | – | – | ring closure, yield of all isomers ([1]; from CC(=O)OC(C1=C[C@H]([C@H](C)[C@@H](C)S(N)(=O)=O)C1)[C@@H]1CC[C@H]1CN1C[C@@]2(CCCc3c2ccc(Cl)c3F)COc2ccc(C(=O)O)nc21, DIPEA, DMAP, 24.6 mM): 100%
CO[C@H]1C2=CC(C2)[C@H](C)CS(=O)(=O)NC(=O)c2ccc3c(c2)N(C[C@@H]2CC[C@H]21)C[C@@]1(CCCc2c1ccc(Cl)c2F)CS3 (stereo partly shown) | – | – | – | – | – | – | – | – | – | – | – | – | – | – | – | – | – | – | ring closure, yield of all isomers ([1]; from CO[C@@H](C1=CC([C@H](C)CS(N)(=O)=O)C1)[C@@H]1CC[C@H]1CN1C[C@@]2(CCCc3c2ccc(Cl)c3F)CSc2ccc(C(=O)O)cc21, Et3N, DMAP, 10.6 mM, 25.0 °C): 26.4%
CO[C@H]1C2=CC(C2)[C@H](C)CS(=O)(=O)NC(=O)c2ccc3c(c2)N(C[C@@H]2CC[C@H]21)C[C@@]1(CCCc2cc(Cl)ccc21)CO3 (single isomer, unassigned) [Cpd. No. 14 (Isomer 1)] | 134.6 | 4720 | 4690 | 7.07 | 3.6 | 1510 | 3.9 | 1.7 | 31800 | 31400 | 2 | 3.6 | 3920 | 5.6 | 1.6 | 4.7 | – | – | IC50 (NCI-H929 cells; 24 h): 26 nM; IC50 (OPM-2 cells; 24 h): 208 nM
COCCO[C@H]1C2=CC(C2)[C@H](C)[C@@H](C)S(=O)(=O)NC(=O)c2ccc3c(c2)N(C[C@@H]2CC[C@H]21)C[C@@]1(CCCc2cc(Cl)ccc21)CO3 (mixture of isomers) [16 (mixture)] | 70.5 | 2440 | 2380 | 13.6 | 1.6 | 1260 | 1.9 | 1.7 | 8620 | 8360 | 2 | 4.9 | 1690 | 4.5 | 8.3 | 9 | 37 | 136 | –
CO[C@H]1C2=CC(C)(C2)[C@H](C)CS(=O)(=O)NC(=O)c2ccc3c(c2)N(C[C@@H]2CC[C@H]21)C[C@@]1(CCCc2cc(Cl)ccc21)CO3 (mixture of isomers) [13 (mixture)] | 57.2 | 5200 | 4780 | 6.4 | 6.5 | 861 | 6.2 | 3.2 | 14900 | 14400 | 4 | 4.5 | 1270 | 6.6 | 4.4 | 21 | 89 | 348 | –
CO[C@@]1(C=O)C2=C[C@@H](C2)[C@H](C)[C@@H](C)S(=O)(=O)NC(=O)c2ccc3c(c2)N(C[C@@H]2CC[C@H]21)C[C@@]1(CCCc2c1ccc(Cl)c2F)CO3 | – | – | – | – | – | – | – | – | – | – | – | – | – | – | – | – | – | – | ring closure, yield of all isomers ([1]; from CO[C@@](C=O)(C1=C[C@H]([C@H](C)[C@@H](C)S(N)(=O)=O)C1)[C@@H]1CC[C@H]1CN1C[C@@]2(CCCc3c2ccc(Cl)c3F)COc2ccc(C(=O)O)cc21, DIPEA, DMAP, 6.4 mM, 0.0 °C): 89%
CO[C@H]1C2=C[C@@H](C2)[C@H](C)[C@@H](C)S(=O)(=O)NC(=O)c2ccc3c(c2)N(C[C@@H]2CC[C@H]21)C[C@@]1(CCCc2cc(Cl)ccc21)CO3 (single isomer, unassigned) [Cpd. No. 15 (isomer 1)] | 84.7 | 7870 | 7580 | 4.23 | 4.9 | 2740 | 4.8 | 1.5 | 33300 | 33000 | 2 | 3.4 | 2720 | 6.1 | 1.5 | 9.7 | 18 | 84 | –
CO[C@H]1C2=CC(C2)[C@H](C)[C@@H](C)S(=O)(=O)NC(=O)c2ccc3c(c2)N(C[C@@H]2CC[C@H]21)C[C@@]1(CCCc2cc(Cl)c(F)cc21)CO3 (single isomer, unassigned) [Cpd. No. 21 (isomer 1)] | 94.1 | 8780 | 8740 | 3.8 | 3.7 | 5160 | 2.7 | 0.6 | 41300 | 41200 | 2 | 2.8 | 5260 | 4.9 | 9.9 | 6.6 | 1000 | 1120 | –
CO[C@H]1C2=CC(C2)[C@H](C)[C@@H](C)S(=O)(=O)NC(=O)c2ccc3c(c2)N(C[C@@H]2CC[C@H]21)C[C@@]1(CCCc2cc(Cl)cc(F)c21)CO3 (single isomer, unassigned) [20 (isomer 1)] | 60.2 | 7500 | 7350 | 4.45 | 6.7 | 6090 | 2.4 | 0.8 | 22600 | 22300 | 1 | 4.9 | 4860 | 3.6 | 3.1 | 12 | 2000 | 2690 | –
